Test results as given in patent US7244837B2, “Insect monoamine transporter and methods of use thereof” (The University of Western Ontario, priority 1999, dated 2007).

Biological target: T1, OA/TAT (octopamine/tyramine transporter) (Trichoplusia ni, UniProt Q95VZ4, D309A/R312W)
T1 sequence (Q95VZ4 75-744 D309A/R312W): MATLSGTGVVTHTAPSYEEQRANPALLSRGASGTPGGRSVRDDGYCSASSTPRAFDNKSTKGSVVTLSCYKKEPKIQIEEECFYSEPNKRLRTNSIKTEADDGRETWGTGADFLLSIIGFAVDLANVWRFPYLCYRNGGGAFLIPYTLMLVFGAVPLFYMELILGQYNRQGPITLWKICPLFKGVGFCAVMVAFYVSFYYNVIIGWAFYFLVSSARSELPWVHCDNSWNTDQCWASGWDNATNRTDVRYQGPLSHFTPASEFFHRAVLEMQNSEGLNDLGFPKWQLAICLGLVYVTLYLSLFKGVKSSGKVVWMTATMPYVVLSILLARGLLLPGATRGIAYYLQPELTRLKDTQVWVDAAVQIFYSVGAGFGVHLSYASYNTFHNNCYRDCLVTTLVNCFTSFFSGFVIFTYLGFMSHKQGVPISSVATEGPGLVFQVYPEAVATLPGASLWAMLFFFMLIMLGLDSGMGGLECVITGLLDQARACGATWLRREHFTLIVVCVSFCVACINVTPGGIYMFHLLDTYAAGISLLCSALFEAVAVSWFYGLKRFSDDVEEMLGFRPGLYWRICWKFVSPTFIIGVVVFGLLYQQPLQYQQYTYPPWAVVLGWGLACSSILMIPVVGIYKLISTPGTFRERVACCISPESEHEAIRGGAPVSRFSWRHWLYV
Test: 3H-dopamine uptake by OA/TAT expressed in baculovirus-infected Sf21 insect cells (transport assay)
Assay type: cell-based
Details: for inhibition at 10 µM: read-out: % Inhibition of 3H-Dopamine uptake by OA/TAT

SMILES: NCC(O)c1ccc(O)cc1 (racemic) [Octopamine, DL-Octopamine]
- IC50: 1.92 ± 0.28 µM
- Ki: 1740 ± 250 nM
- inhibition at 10 µM: 80.9%

SMILES: CNCC(O)c1ccc(O)cc1 (racemic) [Synephrine, (±)-Synephrine]
- inhibition at 10 µM: 6.39%

SMILES: NCCc1ccc(O)c(O)c1 [Dopamine, 3-Hydroxytyramine]
- IC50: 4.1 ± 1.02 µM
- Ki: 3720 ± 920 nM
- inhibition at 10 µM: 70.2%

SMILES: Fc1ccc(C(OCCN2CCN(CCCc3ccccc3)CC2)c2ccc(F)cc2)cc1 [GBR12909]
- inhibition at 10 µM: -10%

SMILES: NCCc1c[nH]cn1 [Histamine]
- inhibition at 10 µM: -1.81%

SMILES: NC[C@H](O)c1ccc(O)c(O)c1 [Norepinephrine, (−)-Arterenol]
- IC50: 22 ± 2.94 µM
- Ki: 20000 ± 2670 nM
- inhibition at 10 µM: 27.2%

SMILES: CN[C@@H](C)[C@@H](O)c1ccccc1 [Pseudoephedrine, (−)-ψ-Ephedrine]
- inhibition at 10 µM: 1.31%

SMILES: NCCc1c[nH]c2ccc(O)cc12 [Serotonin, 5-Hydroxytryptamine]
- inhibition at 10 µM: -3.6%

SMILES: NCCc1c[nH]c2ccccc12 [Tryptamine]
- inhibition at 10 µM: 9.57%

SMILES: NCCc1ccc(O)cc1 [Tyramine]
- IC50: 0.39 ± 0.11 µM
- Ki: 350 ± 100 nM
- inhibition at 10 µM: 96.5%
